Where a name gives a salt, the structure may show the parent alone. Read-outs that look alike come from different tables or passages of the source.
Experiments:
[1] = test system: mouse peritoneal macrophages; assay: Ex vivo IL-6 release from mouse peritoneal macrophages with E. coli-derived extracellular vesicles; assay type: cell-based; conditions: 10 μM prodrug
Description: FIG. 41 is a graph showing IL-6 levels obtained by treating mouse peritoneal macrophages with 10 μM prodrugs in the presence of E. coli-derived extracellular vesicles (EC_EV)

[2] = test system: mouse macrophages (RAW 264.7); assay: In vitro screening: extracellular vesicle-induced IL-6 secretion from macrophages; assay type: cell-based; conditions: for activity at 10 µM: Mus musculus, RAW 264.7, vesicles 100 ng/ml
[3] = test system: mouse macrophages (RAW 264.7); assay: as above; assay type: cell-based; conditions: RAW264.7, 15 h, read-out: level of IL-6 as percentage of the positive control (kinase inhibitors)
Description: FIG. 35 is a schematic diagram showing the discovery of substances inhibitory of the gut flora-derived extracellular vesicles-induced release of IL-6. The mouse macrophages (RAW 264.7) were treated for 15 hours with the gut flora-derived extracellular vesicles (100 ng/ml) alone, separated by the method of Example 3, or in combination with a drug candidate (10 μM), in a 37° C. incubator. The culture media was collected and centrifuged at 4° C., 500×g for 10 min and then at 4° C., 3000×g for 20 min. IL-6 in the supernatant was quantitatively analyzed by ELISA. These processes account, at least in part, for a method for in vitro screening drug candidates inhibitory of the gut flora-derived extracellular vesicle-induced secretion of IL-6, by which drug candidates preventive or therapeutic of gut flora-derived extracellular vesicles-caused diseases can be provided.
According to the method established in Example 12, mouse macrophages (RAW 264.7) were treated with neither extracellular vesicles nor any drug candidate (negative control), with E. coli-derived extracellular vesicles (0.1 μg/ml) alone (positive control) or with the extracellular vesicles (0.1 μg/ml) in combination with 10 μM of one selected from among 80 different kinase inhibitors ((kinase inhibitor library, BIOMOL No. 2832: PD-98059, U-0126, SB-203580, H-7, H-9, AG-494, AG-825, Lavendustin A, RG-14620, Tytphostin 23, Tytphostin 25, Tytphostin 46, Tytphostin 47, Tytphostin 51, Tytphostin 1, Tytphostin 9, Tytphostin AG 1288, Tytphostin AG 1478, Tytphostin AG 1295, HNMPA, Damnacanthal, Piceatannol, AG-490, AG-126, AG-370, AG-879, LY 294002, Wortmannin, GF 109203X, Hypericin, Sphingosine, H-89, H-8, HA-1004, HA-1077, HDBA, KN-62, KN-93, ML-7, ML-9, 2-Aminopurine, N9-Isopropyl-olomoucine, Olomoucine, iso-olomoucine, Roscovitine, LFM-A13, SB-202190, ZM 336372, SU 4312, AG-1296, Rottlerin, Genistein, Daiazein, Erbstatin analog, Quercetin dehydrate, SU 1498, ZM 449829, DRB (5,6-Dichloro-1-b-D-ribofuranosylbenzimidazole), HBDDE (2,2′,3,3′,4,4′-Hexahydroxy-1,1′-biphenyl-6,6′-dimethanol dimethyl ether), Indirubin, Indirubin-3′-monoxime, Y-27632, Kenpaullone, Terreic acid, BML-257, BML-259, Apigenin, BML-265 (Erlotinib analog), Rapamycin). After 15 hours of treatment, IL-6 was quantitatively analyzed by ELISA.

[4] = test system: C57BL/6 mice; assay: In vivo serum IL-6 in extracellular vesicle-induced sepsis mouse model; conditions: 10 mg/kg i.p.; vesicles 5 μg i.p.; 6 hours; ELISA
Description: In vivo assay was performed to examine whether the prodrugs discovered in Example 15 exert anti-inflammatory effects in the body. To this end, the sepsis mouse models that were established by the intraperitoneal injection of 5 μg of E. coli-derived extracellular vesicles into C57BL/6 mice (male, 6 weeks old, 4 mice in each group) as in Example 6 was intraperitoneally injected with Haloperidol and Doxepein at a dose of 10 mg/kg, each. Sera were taken 6 hours later.

[5] = test system: mouse macrophages (RAW 264.7); assay: IL-6 secretion from macrophages treated with extracellular vesicles from small intestinal fluid; assay type: cell-based; conditions: RAW 264.7, ELISA, versus vesicles alone
From the text: Extracellular vesicles were separated from small intestinal fluids of normal mice and DSS-induced mouse model of […]. To this end, mice were operated on to excise the small intestine. The peyer's patch and liquid were removed from the excised small intestine which was then cut at regular lengths of about 5 cm. The intestinal pieces were transversely cut and washed with physiological saline to remove impurities therefrom. They were again cut into pieces with dimensions of 1 cm×1 cm and vortexed five times for five sec per time in 30 mL of physiological saline. After the removal of intestinal tissues and impurities by centrifugation, the supernatant was ultra-centrifuged to separate extracellular vesicles.
FIGS. 3 and 4 show the secretion of the inflammatory cytokine IL-6 in mouse macrophages (RAW 264.7) treated with various concentrations of the extracellular vesicles separated from the small intestinal fluids of normal mice and DSS-induced mouse models of IBD.
FIG. 5 provides the results after an experiment was done to see whether the exracellular vesicles from the DSS-induced mouse model of IBD contained those derived from Gram-negative bacteria.

[6] = RAW264.7, 15 h, read-out: IL-6 level as percentage of the positive control (prodrugs)

Molecule	IL-6 release from mouse peritoneal macrophages [1]	activity at 10 µM [2, 6]	activity at 10 µM [3]	other results
CN(C)CCC=C1c2ccccc2CCc2ccccc21 [Amitriptyline]	inhibitory effect	< 80%	–	–
O=c1cc(-c2ccc(O)cc2)oc2cc(O)cc(O)c12 [Apigenin, 5,7-dihydroxy-2-(4-hydroxyphenyl)chromen-4-one]	–	–	< 50%	–
CC(C)c1cnc(NC(=O)Cc2ccccc2)s1 [BML-259, N-(5-Isopropylthiazol-2-yl)phenylacetamide]	–	–	< 50%	–
CN(C)CCC=C1c2ccccc2C=Cc2ccccc21 [Cyclobenzaprine]	inhibitory effect	< 80%	–	–
OC[C@H]1O[C@H](n2cnc3cc(Cl)c(Cl)cc32)[C@@H](O)[C@H]1O [DRB, (2S,3S,4R,5R)-2-(5,6-dichlorobenzimidazol-1-yl)-5-(hydroxymethyl)oxolane-3,4-diol]	–	–	< 50%	–
CNCCCN1c2ccccc2CCc2ccccc21 [Desipramine]	inhibitory effect	< 80%	–	–
CN(C)CCC=C1c2ccccc2COc2ccccc21 [Doxepin]	inhibitory effect	< 80%	–	serum IL-6 level [4]: effectively suppressed
Cl.Cl.OCCN1CCN(CCCN2c3ccccc3Sc3ccc(C(F)(F)F)cc32)CC1 [Fluphenazine dichloride]	inhibitory effect	–	–	–
CN(C)CCCn1cc(C2=C(c3c[nH]c4ccccc34)C(=O)NC2=O)c2ccccc21 [GF109203X, 3-[1-[3-(dimethylamino)propyl]indol-3-yl]-4-(1H-indol-3-yl)pyrrole-2,5-dione]	–	–	< 50%	–
CC1CNCCN1S(=O)(=O)c1cccc2cnccc12 (centres unmarked) [H-7, 5-(2-methylpiperazin-1-yl)sulfonylisoquinoline dihydrochloride]	–	–	< 50%	–
O=C(CCCN1CCC(O)(c2ccc(Cl)cc2)CC1)c1ccc(F)cc1 [Haloperidol]	inhibitory effect	< 80%	–	serum IL-6 level [4]: effectively suppressed
CN(C)CCCN1c2ccccc2CCc2ccccc21 [Imipramine]	inhibitory effect	< 80%	–	–
O=C1N=c2ccccc2=C1c1[nH]c2ccccc2c1NO [Indirubin-3′monoxime, 3-[3-(hydroxyamino)-1H-indol-2-yl]indol-2-one]	–	–	< 50%	–
O=C1Cc2c([nH]c3ccc(Br)cc23)-c2ccccc2N1 [Kenpaullone, 9-bromo-7,12-dihydro-5H-indolo[3,2-d][1]benzazepin-6-one]	–	–	< 50%	–
O=c1cc(N2CCOCC2)oc2c(-c3ccccc3)cccc12 [LY294002, 2-morpholin-4-yl-8-phenylchromen-4-one]	–	–	< 50%	–
O=S(=O)(c1cccc2c(I)cccc12)N1CCCNCC1 [ML-7, 1-(5-iodonaphthalen-1-yl)sulfonyl-1,4-diazepane hydrochloride]	–	–	< 50%	–
O=S(=O)(c1cccc2c(Cl)cccc12)N1CCCNCC1 [ML-9, 1-(5-chloronaphthalen-1-yl)sulfonyl-1,4-diazepane hydrochloride]	–	–	< 50%	–
CNCCCC12CCC(c3ccccc31)c1ccccc12 [Maprotiline]	inhibitory effect	< 80%	–	–
Cc1ccccc1C(OCCN(C)C)c1ccccc1 (centres unmarked) [Orphenadrine]	inhibitory effect	< 80%	–	–
COc1ccc2c(c1)c(OC(C)C)c(C(N)=O)[s+]2[O-] (centres unmarked) [PD-144795, 5-methoxy-3-(1-methylethoxy)benzo(b)thiophene-2-carboxamide-1-oxide]	–	–	–	IL-6 secretion at graded concentrations ([2]; 0.1, 1, 5, 10 μM, vesicles 100 ng/ml): inhibits IL-6 secretion in a dose-dependent manner; activity at 10 µM ([2]; RAW264.7, 10 μM, read-out: IL-6 level as percentage of the positive control (phosphatase inhibitors)): < 50%
CC(C)(C)c1ccc(C(O)CCCN2CCC(C(O)(c3ccccc3)c3ccccc3)CC2)cc1 (centres unmarked) [Terfenadine]	inhibitory effect	< 80%	–	–
Cc1c(Cl)cccc1Nc1ccccc1C(=O)O [Tolfenamic acid]	inhibitory effect	< 80%	–	–
O=c1n(CCCN2CCN(c3cccc(Cl)c3)CC2)nc2ccccn12 [Trazodone]	inhibitory effect	< 80%	–	–
NS(=O)(=O)c1cc2c(cc1Cl)NC(C(Cl)Cl)NS2(=O)=O (centres unmarked) [Trichlormethiazide]	–	< 80%	–	–
COc1ccc(CCN(C)CCCC(C#N)(c2ccc(OC)c(OC)c2)C(C)C)cc1OC (centres unmarked) [Verapamil]	–	< 80%	–	–
C=CC(=O)c1ccc2ccccc2c1 [ZM449829, 1-(2-Naphthalenyl)-2-propen-1-one]	–	–	< 50%	–
polymyxin B	–	–	–	secretion of IL-6 induced by extracellular vesicles from DSS-induced IBD mice, in combination with polymyxin B [5]: decreased

Reference: US9274109B2, “Gut flora-derived extracellular vesicles, and method for searching for a disease model, vaccine, and candidate drug and for diagnosis using the same” (AEON MEDIX INC., priority 2009, dated 2016)
